Data from paper PMC4607650 (Bioorganic & medicinal chemistry letters, 2015).
“Also recorded” adds a separate entry of the source. Each block holds one molecule with its values, some of them ahead of it.

Experiments:
hP2Y14R [1] = target: T1, hP2Y14R (Homo sapiens, UniProt Q15391); experiment: competition for fluorescent binding of tracer 11
T1 sequence (Q15391 1-338): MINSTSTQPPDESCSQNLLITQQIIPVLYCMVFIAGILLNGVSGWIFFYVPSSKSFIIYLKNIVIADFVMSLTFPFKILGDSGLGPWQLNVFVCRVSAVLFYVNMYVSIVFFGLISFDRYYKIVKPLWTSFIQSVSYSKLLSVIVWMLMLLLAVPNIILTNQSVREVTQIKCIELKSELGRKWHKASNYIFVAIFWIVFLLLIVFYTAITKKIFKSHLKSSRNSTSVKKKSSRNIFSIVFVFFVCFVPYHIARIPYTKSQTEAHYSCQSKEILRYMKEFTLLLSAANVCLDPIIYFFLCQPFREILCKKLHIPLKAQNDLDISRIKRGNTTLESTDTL

P2Y14R-CHO cells = target: T2, P2Y14R-CHO cells (Homo sapiens, UniProt Q15391); experiment: confocal fluorescence microscopy labeling of P2Y14R-CHO cells by 11; type: cell-based
T2 sequence (Q15391 1-338): T1 sequence (Q15391 1-338)

human P2Y14R = target: T3, human P2Y14R (Homo sapiens, UniProt Q15391); experiment: inhibition of forskolin-stimulated cAMP accumulation in CHO-P2Y14R cells; type: cell-based; details: cAMP EC50 ratio, hP2Y14R-CHO cells
T3 sequence (Q15391 1-338): T1 sequence (Q15391 1-338)

hP2Y14R [2] = target: T1, hP2Y14R; type: binding
P2Y6R = details: read-out: EC50 for activation of the P2Y6R; cited from earlier work

- inhibition of binding of 11 (FCM, concentration dependence) (hP2Y14R [1]): Nearly complete inhibition
- inhibition of fluorescent labeling by 11 (confocal microscopy) (P2Y14R-CHO cells): complete inhibition of binding
Compound: O=C(O)c1cc(-c2ccc(C3CCNCC3)cc2)c2ccc(-c3ccc(C(F)(F)F)cc3)cc2c1 [Compound 5, 4-(4-(piperidin-4-yl)-phenyl)-7-(4-(trifluoromethyl)-phenyl)-2-naphthoic acid]

- potency enhancement of the fluorescent conjugate versus 47 nM parent (human P2Y14R): 50 fold
- Bmax (hP2Y14R [2]; FCM saturation binding, n=3): 44,400 MESF
- level of nonspecific binding (hP2Y14R [2]; FCM, coincubation with up to 200 nM 5): very low
Compound: O=C(COc1ccc(C2=[N+]3C(=Cc4ccc(-c5cccs5)n4[B-]3(F)F)C=C2)cc1)NCCCCCNC(=O)[C@H]1O[C@H](OP(=O)(O)OP(=O)(O)OCC2OC(n3ccc(=O)[nH]c3=O)C(O)C2O)[C@H](O)[C@@H](O)[C@@H]1O (some centres unmarked) [Compound 11]

Compound: CONc1ccn([C@@H]2O[C@H](COP(=O)(O)OP(=O)(O)OP(=O)(O)OC[C@H]3O[C@@H](n4ccc(=O)[nH]c4=O)[C@@H](O)[C@H]3O)[C@H](O)[C@@H]2O)c(=O)n1 [Compound 12, P^1-(uridine 5′-)-P^3-(N^4-methoxycytidine 5′-)triphosphate]
- Ki at P2Y14R relative to EC50 at P2Y6R (hP2Y14R [1]; Ki (FCM, P2Y14R) higher than P2Y6R EC50): about 500 fold
- EC50 (P2Y6R): 12 nM

Compound: S=C=Nc1cccc(NC(=S)NCCCCNC(=S)Nc2cccc(N=C=S)c2)c1 [Compound 13]
- inhibition of binding of 11 at hP2Y14R at fixed concentration (hP2Y14R [1]; test ligand at 10 μM, tracer 11 50 nM, FCM): did not show any significant binding; also recorded: No inhibition at 10 μM
